Test results as given in patent US12121581B2, “Method of photodynamic therapy” (OSLO UNIVERSITETSSYKEHUS HF, priority 2018, dated 2024).

How the values were obtained:
[1] = tested on: U87 cells; assay: LUMIBLAST cell viability, MTT assay; type: cell-based
Experimental: Efficiency of the luminol derivatives was investigated. The initial derivative tested was HD92 (also referred to herein as “AP47”). U87 cells were inoculated in 96 well plates. The cells were then divided into the following groups (at least 6 parallels per group): CTRL (media only), ALA CTRL (2 mM), HD92 CTRL (500 μM) and the LUMIBLAST group (2 mM 5-ALA and 500 μM HD92). Correspondingly, MCF7 cells were inoculated in 96 well plates and left to grow overnight. The cells were then divided into the following groups (at least 6 parallels per group): CTRL (media only), Hypocrellin A CTRL (HYPA 7 μM), HD92 CTRL (500 μM) and the LUMIBLAST group (7 μM HYPA and 500 μM HD92). These four groups were incubated in media with and without 10 μM FeSO4 in the case of experiments with HYPA. […] In brief, all cell groups were incubated with 0.5 mg/mL MTT for 3 hours. The MTT media were subsequently replaced with DMSO (100 μL) to solubilise the formazan. The wells were read for absorbance at 562 nm using a Tecan Spark OM plate reader. The cytotoxicity was determined as the percentage of control (media only) absorbance following subtraction of blank values from wells without cells.
MCF7 and U87 cells were inoculated in 96 well plates. The cells were then divided into the following groups (at least 6 parallels per group): CTRL (media only), HYPA CTRL (3 μM), DZ168 CTRL (5, 10, 20 and 30 μM), and the LUMIBLAST combinations (3 μM HYPA+DZ168 5-30 μM). These cell group incubations were also repeated in media containing 100 μM CuSO4. […]
MCF7 and U87 cells were inoculated in 96 well plates. The cells were then divided into the following groups (at least 6 parallels per group):CTRL (media only), HYPA CTRL (5 μM), DZ167 CTRL (25-200 μM), and the LUMIBLAST combinations (5 μM HYPA+DZ167 25-200 μM). These incubations were performed in media containing 50 μM CuSO4. […]
The subcellular localisation of cercosporin together with that of synthesised derivatives DZ203 (short alkyl linker) and DZ196 (oligoPEG linker) was investigated. U87 cells were inoculated in 96 well plates. The cells were then divided into the following groups (at least 6 parallels per group). CTRL (media only), Cercosporin CTRL (3 μM), DZ203 CTRL (200 μM), DZ196 CTRL (500 μM) and the LUMIBLAST combinations (3 μM cercosporin+DZ203 200 μM or 3 μM cercosporin DZ196 500 μM). […]

[2] = tested on: MCF7 cells; assay: LUMIBLAST cell viability, MTT assay; type: cell-based
Experimental: (§1) Efficiency of the luminol derivatives was investigated. The initial derivative tested was HD92 (also referred to herein as “AP47”). U87 cells were inoculated in 96 well plates. The cells were then divided into the following groups (at least 6 parallels per group): CTRL (media only), ALA CTRL (2 mM), HD92 CTRL (500 μM) and the LUMIBLAST group (2 mM 5-ALA and 500 μM HD92). Correspondingly, MCF7 cells were inoculated in 96 well plates and left to grow overnight. The cells were then divided into the following groups (at least 6 parallels per group): CTRL (media only), Hypocrellin A CTRL (HYPA 7 μM), HD92 CTRL (500 μM) and the LUMIBLAST group (7 μM HYPA and 500 μM HD92). These four groups were incubated in media with and without 10 μM FeSO4 in the case of experiments with HYPA. Following incubation of the cells with their respective drug strategies overnight (˜20 hours), the cell groups were tested for their viability using a standard MTT assay. In brief, all cell groups were incubated with 0.5 mg/mL MTT for 3 hours. The MTT media were subsequently replaced with DMSO (100 μL) to solubilise the formazan. The wells were read for absorbance at 562 nm using a Tecan Spark OM plate reader. The cytotoxicity was determined as the percentage of control (media only) absorbance following subtraction of blank values from wells without cells.
MCF7 and U87 cells were inoculated in 96 well plates. The cells were then divided into the following groups (at least 6 parallels per group): CTRL (media only), HYPA CTRL (3 μM), DZ168 CTRL (5, 10, 20 and 30 μM), and the LUMIBLAST combinations (3 μM HYPA+DZ168 5-30 μM). These cell group incubations were also repeated in media containing 100 μM CuSO4. Following incubation of the cells with their respective drug strategies overnight (˜20 hours), the cell groups were tested for their viability using the MTT assay.

[3] = tested on: MDA-MB-231 breast carcinoma cells; assay: LUMIBLAST cell viability, MTT assay; type: cell-based; settings: 1.2 mM 5-ALA + DZ203 400 μM, 100 μM CuSO4, ~20 hours
Experimental: as §1
MDA-MB-231 cells were inoculated in 96 well plates. […]

[4] = tested on: cells; settings: luminol together with transferrin-haematoporphyrin conjugates; cited from earlier work

Compound: O=c1[nH][nH]c(=O)c2c(NCCCCCC[P+](c3ccccc3)(c3ccccc3)c3ccccc3)cccc12.[I-] [DZ167, (6-((1,4-dioxo-1,2,3,4-tetrahydrophthalazin-5-yl)amino)hexyl)triphenylphosphonium iodide]
- LUMIBLAST effect (MTT viability) ([1]; U87, 200 μM DZ167, 5 μM HYPA and 50 μM CuSO4, ~20 hours): synergistic effect

Compound: O=C(CCCCC[P+](c1ccccc1)(c1ccccc1)c1ccccc1)Nc1cccc2c(=O)[nH][nH]c(=O)c12.[Br-] [AP47, (6-((1,4-dioxo-1,2,3,4-tetrahydrophthalazin-5-yl)amino)-6-oxohexyl)triphenylphosphonium bromide]
- combinatory cytotoxic effect (MTT viability) ([1]; U87, 2 mM 5-ALA and 500 μM HD92, ~20 hours, relative to HD92 control): combinatory cytotoxic effect is profoundly significant
- toxicity of the derivative alone (MTT viability) ([1]; U87, HD92 CTRL 500 μM, ~20 hours): sub-toxic but very near the margins of chemical toxicity
- combinatory cytotoxic effect (MTT viability) ([2]; 7 μM HYPA and 500 μM HD92, 10 μM FeSO4, ~20 hours, relative to HD92 control): combinatory cytotoxic effect is profoundly significant
- toxicity of the derivative alone (MTT viability) ([2]; HD92 CTRL 500 μM, ~20 hours): sub-toxic but very near the margins of chemical toxicity

Compound: NCC(=O)CCC(=O)O [Compound 5-ALA, 5-aminolevulinic acid, reference compound]
- efficiency of photosensitizer in producing LUMIBLAST effects ([1]; 2 mM 5-ALA with 500 μM HD92 in U87, compared with HYPA in MCF7 with FeSO4): less efficient in producing LUMIBLAST effects than HYPA

Compound: O=c1[nH][nH]c(=O)c2c(NCCOCCOCC[P+](c3ccccc3)(c3ccccc3)c3ccccc3)cccc12.[I-] [DZ196, (2-(2-(2-((1,4-dioxo-1,2,3,4-tetrahydrophthalazin-5-yl)amino)ethoxy)ethoxy)ethyl)triphenylphosphonium iodide]
- LUMIBLAST effect (MTT viability) ([1]; U87, 3 μM cercosporin + DZ196 500 μM, without Cu): smaller effect

Compound: O=c1[nH][nH]c(=O)c2c(NCCCCCCCCCC[P+](c3ccccc3)(c3ccccc3)c3ccccc3)cccc12.[I-] [DZ168, (10-((1,4-dioxo-1,2,3,4-tetrahydrophthalazin-5-yl)amino)decyl)triphenylphosphonium iodide]
- toxicity (MTT viability) ([1]; U87, 3 μM HYPA + DZ168 5-30 μM, 100 μM CuSO4, ~20 hours): not affected
- toxicity (MTT viability) ([2]; 3 μM HYPA + DZ168 5-30 μM, 100 μM CuSO4, ~20 hours): enhanced toxicity

Compound: O=c1[nH][nH]c(=O)c2c(NCCC[P+](c3ccccc3)(c3ccccc3)c3ccccc3)cccc12.[I-] [DZ203, (3-((1,4-dioxo-1,2,3,4-tetrahydrophthalazin-5-yl)amino)propyl)triphenylphosphonium iodide]
- LUMIBLAST effect (MTT viability) ([1]; U87, 3 μM cercosporin + DZ203 200 μM, 24 hours, presence of Cu (150 μM)): very profound effect
- LUMIBLAST effect (MTT viability) [3]: substantial synergy

Compound: Nc1cccc2c(=O)[nH][nH]c(=O)c12 [luminol]
- cytotoxicity [4]: 95%
